Holding throughout (assay): DTP human tumour cell line panel, 48 h
Test [1] has as its system NCI-H23 lung.
For test [2], the system named is A498 renal.
The test system of test [3] is SF-539 CNS.
Test [4] concerns 786-0 renal.
For test [5], the system named is OVCAR-5 ovarian.
Test [6] concerns NCI-H226 lung.
Test [7] has as its system RPMI-8226 leukemia.
The subject of test [8] is UO-31 renal.
Test [9] deals with SK-OV-3 ovarian.
The subject of test [10] is COLO 205 colon.

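Values below derive from 48-hour exposures of cells grown in 96-well plates, with endpoints linearly interpolated between the two concentrations bracketing the appropriate inhibition level. The concentration for 50% growth inhibition is given as GI50. TGI: concentration producing complete growth inhibition.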

For orientation: TGI means the concentration at which net growth stops. A lower TGI goes with more potent growth arrest. For the compound `O=c1cc(-c2cccs2)[nH]c2cc3c(cc12)OCO3`, the TGI in test [1] is above 100 µM; in test [2] it was 16.2 µM; in [3], 12.7 µM; in test [4] it was above 41.3 µM; in test [5], above 100 µM; in test [6] it was above 39.4 µM. Besides, the concentration for total growth inhibition (TGI) in test [7] is above 100 µM; in test [8] it was above 100 µM; in test [9], 8.14 µM; in test [10], above 100 µM.

With `O=C1Nc2ccccc2C1(O)C/C(=N/O)c1ccc2ccccc2c1` (centres undefined), the TGI in [1], in test [2], in [3], in [4], in [5] and in test [6] was above 100 µM in each case. Further, the TGI in test [7], in [8], in [9] and in [10] was above 100 µM throughout.

A word on the GI50: it is the concentration giving 50% growth inhibition. Regarding `O=C(O)c1nc(NCc2nc3cc(Cl)ccc3o2)n[nH]1`, the GI50 in test [1], in [2], in test [3], in test [4], in [5] and in [6] was above 100 µM in each case. Also, the GI50 in [7], in [8], in test [9] and in test [10] was above 100 µM each time. The TGI in test [1], in test [2], in [3], in [4], in test [5] and in test [6] was above 100 µM in each case. In addition, the TGI in test [7], in [8], in test [9] and in [10] was above 100 µM each time.

In the case of `Cn1c(=O)c(N=Nc2c(=O)n(C)c(=O)n3c2[nH]c2ccccc23)c2[nH]c3ccccc3n2c1=O`, the TGI in test [1], in test [2], in test [3], in test [4], in test [5] and in test [6] was above 100 µM throughout. Also, the TGI in test [7], in test [8], in [9] and in test [10] was above 100 µM in each case.

Take `C/C(=N/O)c1cccc(Nc2cc(-n3nnc4ccccc43)nc3ccccc23)c1`: the GI50 in test [1] was 15.7 µM; in [2], 25 µM; in test [3], 1.62 µM; in test [4] it was 4.84 µM; in [5], 22.5 µM; in test [6], 11.8 µM. The GI50 in test [7] was 3.07 µM; in [8] it was 25 µM; in [9], 30.5 µM; in [10] it was 32.4 µM. The TGI was determined as 35.5 µM in test [1]; 55.8 µM in test [2]; 5.88 µM in test [3]; 31.3 µM in test [4]; 84.9 µM in test [5]; 47.3 µM in test [6]. Moreover, the TGI is 14.4 µM in [7], above 100 µM in test [8], above 74.2 µM in test [9] and above 73 µM in test [10].

As to `O=C1OCC2=C1C(c1cccc(F)c1)c1cc3c(cc1N2CCO)OCO3` (centres undefined), the GI50 in test [1] is 3.96 µM; in test [2] it was 1.11 µM; in test [3], 1.13 µM; in test [4], 1.86 µM; in test [5] it was 4.33 µM; in test [6] it was above 50 µM. Also, the GI50 is 2.28 µM in test [7], 2.88 µM in test [8], 1.73 µM in [9] and 1.48 µM in [10]. The TGI in [1] is above 50 µM; in test [2] it was 4.87 µM; in test [3] it was 3.61 µM; in [4], above 50 µM; in [5], above 50 µM; in [6], above 50 µM. Also, the TGI in test [7] was above 50 µM; in [8] it was above 50 µM; in test [9], above 50 µM; in test [10], 15.1 µM.

As to `CCOC(=O)Cc1nc2ccc3c(c2[nH]c1=O)C(=O)c1ccccc1C3=O`, the TGI in test [1], in test [2], in test [3], in test [4], in [5] and in test [6] was above 100 µM each time. In addition, the TGI in test [7], in test [8], in [9] and in [10] was above 100 µM throughout.

As for `CN(C)CCNC(=O)Cn1ccc(=O)c2cc([N+](=O)[O-])ccc21`, the TGI in test [1], in test [2], in [3], in test [4], in test [5] and in [6] was above 100 µM throughout. Also, the total growth inhibition concentration (TGI) in [7], in test [8], in test [9] and in test [10] was above 100 µM each time.

`CC(CO)Nc1cc(-c2[nH]c3cccnc3c2-c2ccc(F)cc2)ccn1` (centres undefined): the GI50 in test [1] is above 25 µM; in [2], 4.36 µM; in [3], above 25 µM; in [4] it was 18.6 µM; in test [5], 22.8 µM; in test [6], above 23.8 µM. The GI50 in test [7] was 17 µM; in [8], 3.89 µM; in test [9], 15 µM; in test [10], 13.8 µM. Moreover, the TGI in test [1] is above 25 µM; in test [2], 25 µM; in test [3], above 25 µM; in [4] it was above 25 µM; in [5] it was above 25 µM; in test [6], above 25 µM. In addition, the concentration for total growth inhibition (TGI) in [7], in test [8], in test [9] and in test [10] was above 25 µM in each case.

Consider `COc1ccc(C2=Nn3c(nnc3-c3cc(Cl)cc(Cl)c3Cl)SC2)cc1`, for which the GI50 was 0.701 µM in test [1]; 0.583 µM in test [2]; 0.225 µM in test [3]; 0.411 µM in [4]; 1.42 µM in test [5]; 0.778 µM in [6]. In addition, the GI50 in [7] was 0.627 µM; in [8], 0.379 µM; in [9] it was 0.522 µM; in test [10], 0.792 µM. The TGI in test [1] is above 100 µM; in test [2] it was above 100 µM; in test [3], 0.741 µM; in test [5] it was above 100 µM; in [6] it was above 100 µM; in [7], above 100 µM. Also, the TGI is 29.2 µM in test [8], above 100 µM in test [9] and 7.15 µM in [10].

These data come from PubChem BioAssay (NCI).
